Measurements published in PubChem BioAssay AID248 (DTP/NCI, 2004).
Inconclusive results and toxic doses are left out. Rule as the data show it: active = T/C of 150% or more; inactive = T/C below 125%.

Test system: L1210 leukemia ip in BDF1 mice, survival T/C
Assay: NCI In Vivo Anticancer Drug Screen. Data for tumor model L1210 Leukemia (intraperitoneal) in B6D2F1 (BDF1) mice
Settings: endpoint: mean survival time, higher = longer survival
Outline: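 Transplantable tumor model; survival measured in treated vs vehicle control mice. Value = treated/control.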

[1] = dose: 100.0 mg/kg/injection, schedule: Q01DX001 (ip), vehicle: saline
[2] = dose: 200.0 mg/kg/injection, schedule: Q01DX001 (ip), vehicle: saline
[3] = dose: 400.0 mg/kg/injection, schedule: Q01DX001 (ip), vehicle: saline
[4] = dose: 100.0 mg/kg/injection, schedule: Q01DX001 (ip), vehicle: saline with Tween-80
[5] = dose: 200.0 mg/kg/injection, schedule: Q01DX001 (ip), vehicle: saline with Tween-80
[6] = dose: 400.0 mg/kg/injection, schedule: Q01DX001 (ip), vehicle: saline with Tween-80
[7] = dose: 100.0 mg/kg/injection, schedule: Q04DX003 (ip), vehicle: Klucel (hydroxypropylcellulose) (HPC)
[8] = dose: 200.0 mg/kg/injection, schedule: Q04DX003 (ip), vehicle: Klucel (hydroxypropylcellulose) (HPC)
[9] = dose: 400.0 mg/kg/injection, schedule: Q04DX003 (ip), vehicle: Klucel (hydroxypropylcellulose) (HPC)
[10] = dose: 100.0 mg/kg/injection, schedule: Q01DX009 (ip), vehicle: Klucel (hydroxypropylcellulose) (HPC)
[11] = dose: 200.0 mg/kg/injection, schedule: Q01DX009 (ip), vehicle: Klucel (hydroxypropylcellulose) (HPC)
[12] = dose: 400.0 mg/kg/injection, schedule: Q01DX009 (ip), vehicle: Klucel (hydroxypropylcellulose) (HPC)
[13] = dose: 100.0 mg/kg/injection, schedule: Q04DX003 (ip), vehicle: saline with Tween-80
[14] = dose: 200.0 mg/kg/injection, schedule: Q04DX003 (ip), vehicle: saline with Tween-80
[15] = dose: 400.0 mg/kg/injection, schedule: Q04DX003 (ip), vehicle: saline with Tween-80
[16] = dose: 100.0 mg/kg/injection, schedule: Q01DX009 (ip), vehicle: saline with Tween-80
[17] = dose: 200.0 mg/kg/injection, schedule: Q01DX009 (ip), vehicle: saline with Tween-80
[18] = dose: 400.0 mg/kg/injection, schedule: Q01DX009 (ip), vehicle: saline with Tween-80
[19] = dose: 100.0 mg/kg/injection, schedule: Q04DX003 (ip), vehicle: saline
[20] = dose: 200.0 mg/kg/injection, schedule: Q04DX003 (ip), vehicle: saline
[21] = dose: 400.0 mg/kg/injection, schedule: Q04DX003 (ip), vehicle: saline
[22] = dose: 100.0 mg/kg/injection, schedule: Q01DX009 (ip), vehicle: saline
[23] = dose: 200.0 mg/kg/injection, schedule: Q01DX009 (ip), vehicle: saline
[24] = dose: 400.0 mg/kg/injection, schedule: Q01DX009 (ip), vehicle: saline

Measured: T/C

CC(C)CN(CC(C)C)C(=O)CCl
inactive: dose: 100.0 mg/kg/injection, schedule: Q01DX001 (ip), vehicle: carboxymethylcellulose (CMC) 106 % of control

CCCCSc1n[nH]c(=O)nc1N
inactive: [1] 93 % of control | [2] 96 % of control | [3] 98 % of control

CCCCCCCCC(CCCCCCCC)C1CCCCC1
inactive: [4] 98 % of control | [5] 95 % of control | [6] 93 % of control

O=C(O)C1=C(C(=O)O)C2C=CC1N2Cc1ccccc1
inactive: dose: 100.0 mg/kg/injection, schedule: Q01DX001 (ip), vehicle: other 96 % of control | dose: 200.0 mg/kg/injection, schedule: Q01DX001 (ip), vehicle: other 102 % of control

CCCCCCCCCCCCCCCCN(C)C(=S)c1ccc(Cl)c(Cl)c1
inactive: dose: 100.0 mg/kg/injection, schedule: Q01DX001 (ip), vehicle: Klucel (hydroxypropylcellulose) (HPC) 100 % of control | [7] 100 % of control | dose: 200.0 mg/kg/injection, schedule: Q01DX001 (ip), vehicle: Klucel (hydroxypropylcellulose) (HPC) 100 % of control | [8] 96 % of control | dose: 400.0 mg/kg/injection, schedule: Q01DX001 (ip), vehicle: Klucel (hydroxypropylcellulose) (HPC) 98 % of control | [9] 91 % of control

CCOc1ccc(/C=N/NS(=O)(=O)c2ccc(C)cc2)cc1
inactive: [10] 104 % of control | [7] 91 % of control | [11] 100 % of control | [8] 92 % of control | [12] 94 % of control | [9] 92 % of control

O=C(O)c1cc(I)ccc1I
inactive: [10] 93 % of control | [11] 104 % of control | [12] 103 % of control

COc1nn(O)cc(C)c1=N
inactive: dose: 25.0 mg/kg/injection, schedule: Q04DX002 (ip), vehicle: saline with Tween-80 92 % of control | dose: 100.0 mg/kg/injection, schedule: Q04DX002 (ip), vehicle: saline with Tween-80 96 % of control

CC1=NCC(C)(C)O1
inactive: [13] 98 % of control | [14] 95 % of control | [15] 98 % of control

COc1cc(/C=N/NC(=O)c2cc(OC)c(OC)c(OC)c2)ccc1O
inactive: [16] 93 % of control | [17] 93 % of control | [18] 90 % of control

CC(/C=N/N=C(\N)N(C)C)=N\N=C(/N)N(C)C
inactive: dose: 95.0 mg/kg/injection, schedule: Q01DX Z (oral), vehicle: carboxymethylcellulose (CMC) 104 % of control | dose: 190.0 mg/kg/injection, schedule: Q01DX Z (oral), vehicle: carboxymethylcellulose (CMC) 110 % of control | dose: 240.0 mg/kg/injection, schedule: Q01DX Z (ip), vehicle: carboxymethylcellulose (CMC) 96 % of control | dose: 380.0 mg/kg/injection, schedule: Q01DX Z (oral), vehicle: carboxymethylcellulose (CMC) 106 % of control | dose: 760.0 mg/kg/injection, schedule: Q01DX Z (oral), vehicle: carboxymethylcellulose (CMC) 112 % of control

Cc1ccc(C(C)(C)Cl)cc1O
inactive: [16] 93 % of control | [13] 96 % of control | [17] 93 % of control | [14] 102 % of control | [18] 98 % of control | [15] 102 % of control

O=C(Nc1ccc(F)cc1)c1ccc(Cl)cc1Cl
inactive: [1] 93 % of control | [19] 97 % of control | [2] 95 % of control | [20] 107 % of control | [3] 88 % of control | [21] 100 % of control

CCCCn1cnc2c(=O)[nH]cnc21
inactive: dose: 66.12 mg/kg/injection, schedule: Q01DX Z (ip), vehicle: carboxymethylcellulose (CMC) 93 % of control | dose: 132.25 mg/kg/injection, schedule: Q01DX Z (ip), vehicle: carboxymethylcellulose (CMC) 94 % of control | dose: 132.25 mg/kg/injection, schedule: Q01DX Z (oral), vehicle: carboxymethylcellulose (CMC) 100 % of control | dose: 264.5 mg/kg/injection, schedule: Q01DX Z (ip), vehicle: carboxymethylcellulose (CMC) 90 % of control | dose: 264.5 mg/kg/injection, schedule: Q01DX Z (oral), vehicle: carboxymethylcellulose (CMC) 96 % of control | dose: 529.0 mg/kg/injection, schedule: Q01DX Z (oral), vehicle: carboxymethylcellulose (CMC) 94 % of control

NC(=O)N/N=C(/c1ccccc1)c1ccccn1
inactive: [16] 101 % of control | [17] 100 % of control | [18] 101 % of control

COc1cc2c(c(OC)c1OC)-c1ccc(N)c(=O)cc1[C@@H](NC(C)=O)CC2
inactive: dose: 0.5 mg/kg/injection, schedule: Q01DX015 (ip), vehicle: saline 116 % of control | dose: 1.0 mg/kg/injection, schedule: Q01DX015 (ip), vehicle: saline 118 % of control | dose: 2.0 mg/kg/injection, schedule: Q01DX001 (ip), vehicle: saline 112 % of control | dose: 2.0 mg/kg/injection, schedule: Q01DX015 (ip), vehicle: saline 92 % of control | dose: 4.0 mg/kg/injection, schedule: Q01DX001 (ip), vehicle: saline 100 % of control | dose: 4.0 mg/kg/injection, schedule: Q01DX015 (ip), vehicle: saline 116 % of control | dose: 8.0 mg/kg/injection, schedule: Q01DX001 (ip), vehicle: saline 98 % of control | dose: 16.0 mg/kg/injection, schedule: Q01DX001 (ip), vehicle: saline 104 % of control

Cc1ccc(S(=O)(=O)N/N=C2\C(=O)C3CCC2C3Cl)cc1 (stereo not given)
inactive: dose: 75.0 mg/kg/injection, schedule: Q01DX001 (ip), vehicle: other 89 % of control | dose: 150.0 mg/kg/injection, schedule: Q01DX001 (ip), vehicle: other 92 % of control

O=C(COc1ccccc1)Oc1c(Cl)cc(Cl)cc1Cl
inactive: [7] 98 % of control | [8] 100 % of control | [9] 100 % of control

CCCCCCCCCCC1CC2CCCC3CCC4CCCC1C4C32 (stereo not given)
inactive: [4] 95 % of control | [5] 108 % of control | [6] 100 % of control

CSc1ncnc2c1ncn2-n1c(C)ccc1C
inactive: [4] 89 % of control | [13] 96 % of control | [5] 90 % of control | [14] 94 % of control | [6] 93 % of control | [15] 93 % of control

Nc1cc(S(=O)(=O)O)cc2ccc(S(=O)(=O)O)cc12
inactive: [22] 102 % of control | [19] 111 % of control | [23] 96 % of control | [20] 101 % of control | [24] 102 % of control | [21] 93 % of control

CC(C)C(C#N)(CCCCN1CCCCC1)c1cccc2ccccc12 (stereo not given)
inactive: [13] 97 % of control | [14] 93 % of control

CC(=O)C1CCC2C3=CC=C4CC(OC(=O)C5CCCCC5)CCC4(C)C3=CCC12C (stereo not given)
inactive: [16] 100 % of control | [17] 89 % of control | [18] 108 % of control

CC(=O)Nc1ccc(CCCCc2cccc(C(=N)N)c2)cc1
inactive: dose: 12.5 mg/kg/injection, schedule: Q01DX009 (ip), vehicle: saline 101 % of control | dose: 12.5 mg/kg/injection, schedule: Q04DX003 (ip), vehicle: Klucel (hydroxypropylcellulose) (HPC) 102 % of control | dose: 25.0 mg/kg/injection, schedule: Q01DX009 (ip), vehicle: saline 101 % of control | dose: 25.0 mg/kg/injection, schedule: Q04DX003 (ip), vehicle: Klucel (hydroxypropylcellulose) (HPC) 100 % of control | dose: 50.0 mg/kg/injection, schedule: Q01DX009 (ip), vehicle: saline 95 % of control | dose: 50.0 mg/kg/injection, schedule: Q04DX003 (ip), vehicle: Klucel (hydroxypropylcellulose) (HPC) 102 % of control

C(=C\c1ccnc2ccccc12)/c1ccccc1
inactive: [22] 101 % of control | [13] 89 % of control | [23] 101 % of control | [14] 94 % of control | [24] 100 % of control | [15] 89 % of control

COc1ccc(C=Nc2ccc(Cl)cc2)cc1
inactive: [10] 96 % of control | [7] 102 % of control | [11] 97 % of control | [8] 104 % of control | [9] 100 % of control

Cc1ccc(C(O)C(=O)O)cc1 (stereo not given)
inactive: dose: 75.0 mg/kg/injection, schedule: Q01DX001 (ip), vehicle: acetone 100 % of control | dose: 150.0 mg/kg/injection, schedule: Q01DX001 (ip), vehicle: acetone 96 % of control
